Measurements taken from US6358885B1, “Substituted phenylheterocyclic herbicides” (Mississippi State University, priority 1992, dated 2002).

How the values were obtained:
[1] = tested on: cheatgrass; assay: Test B preemergence/postemergence greenhouse plant response rating 0 to 10; format: in vivo, Bromus secalinus; details: 0 to 10 scale
Summary of the method: (§1)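 Both application timings were run together: seeds got compound preemergence, and established seedlings (two to eighteen cm) got it postemergence. Non-phytotoxic solvent carried the chemical. Ratings are visual, versus controls, at twelve to sixteen days.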

[2] = tested on: corn; assay: as above; format: in vivo, Zea mays; details: 0 to 10 scale
Summary of the method: as §1

[3] = tested on: cotton; assay: as above; format: in vivo, Gossypium hirsutum; details: 0 to 10 scale
Summary of the method: as §1

[4] = tested on: lambsquarters; assay: as above; format: in vivo, Chenopodium album; details: 0 to 10 scale
Summary of the method: as §1

[5] = tested on: rice; assay: as above; format: in vivo, Oryza sativa; details: 0 to 10 scale
Summary of the method: as §1

[6] = tested on: wheat; assay: as above; format: in vivo, Triticum aestivum; details: 0 to 10 scale
Summary of the method: as §1

[7] = tested on: wild oat; assay: as above; format: in vivo, Avena fatua; details: 0 to 10 scale
Summary of the method: as §1

[8] = tested on: bedstraw; assay: Test C preemergence/postemergence greenhouse plant response rating 0 to 100; format: in vivo, Galium aparine; details: POSTEMERGENCE; for Plant response rating, Bedstraw: 0 to 100 scale
From the text: (§2) The compounds evaluated in this test were formulated in a non-phytoxic solvent and applied to the soil surface before plant seedlings emerged (preemergence application), to water that covered the soil surface (flood application), and to plants that were in the one-to-four leaf stage (postemergence application). A sandy loam soil was used for the preemergence and postemergence tests, while a silt loam soil was used in the flood test. Water depth was approximately 2.5 cm for the flood test and was maintained at this level for the duration of the test. Plant species in the preemergence and postemergence tests consisted of barley (Hordeum vulgare), bedstraw (Galium aparine), blackgrass (Alopecurus myosuroides), chickweed (Stellaria media), corn (Zea mays), cotton (Gossypium hirsutum), crabgrass (Digitaria sanguinalis), downy brome (Bromus tectorum), giant foxtail (Setaria faberii), lambsquarters (Chenopodium album), morningglory (Ipomoea hederacea), pigweed ([…]), rape (Brassica napus), ryegrass (Lolium multiflorum), sorghum (Sorghum bicolor), soybean (Glycine max), speedwell (Veronica persica), sugar beet (Beta vulgaris), velvetleaf (Abutilon theophrasti), wheat (Triticum aestivum), wild buckwheat (Polygonum convolvulus), and wild oat (Avena fatua). All plant species were planted one day before application of the compound for the preemergence portion-of this test. Plantings of these species were adjusted to produce plants of appropriate size for the post-emergence portion of the test. […] All plant species were grown using normal greenhouse practices. Visual evaluations of injury expressed on treated plants, when compared to untreated controls, were recorded approximately fourteen to twenty one days after application of the test compound. […] A dash (-) response means no test result.

[9] = tested on: cotton; assay: as above; format: in vivo, Gossypium hirsutum; details: POSTEMERGENCE; for Plant response rating, Cotton: 0 to 100 scale
From the text: as §2

[10] = tested on: crabgrass; assay: as above; format: in vivo, Digitaria sanguinalis; details: POSTEMERGENCE; for Plant response rating, Crabgrass: 0 to 100 scale
From the text: as §2

[11] = tested on: downy brome; assay: as above; format: in vivo, Bromus tectorum; details: POSTEMERGENCE; for Plant response rating Downy Brome: 0 to 100 scale
From the text: as §2

[12] = tested on: giant foxtail; assay: as above; format: in vivo, Setaria faberii; details: POSTEMERGENCE; for Plant response rating, Giant foxtail: 0 to 100 scale
From the text: as §2

[13] = tested on: lambsquarters; assay: as above; format: in vivo, Chenopodium album; details: POSTEMERGENCE; for Plant response rating Lambsquarters: 0 to 100 scale
From the text: as §2

[14] = tested on: sorghum; assay: as above; format: in vivo, Sorghum bicolor; details: POSTEMERGENCE; for Plant response rating, Sorghum: 0 to 100 scale
From the text: as §2

[15] = tested on: sugar beet; assay: as above; format: in vivo, Beta vulgaris; details: POSTEMERGENCE; for Plant response rating, Sugar beet: 0 to 100 scale
From the text: as §2

[16] = tested on: velvetleaf; assay: as above; format: in vivo, Abutilon theophrasti; details: POSTEMERGENCE; for Plant response rating, Velvetleaf: 0 to 100 scale
From the text: as §2

[17] = tested on: duck salad; assay: Test C flood test plant response rating 0 to 100; format: in vivo, Heteranthera limosa; details: for Plant response rating (0 to 100), Duck salad: under POSTEMERGENCE head (flood test species); for Plant response rating Duck salad: flood test species listed under POSTEMERGENCE, 0 to 100 scale
From the text: as §2

[18] = tested on: barnyardgrass; assay: Test C flood test plant response rating 0 to 100; format: in vivo, Echinochloa crus-galli; details: for Plant response rating (0 to 100), Barnyardgrass: under POSTEMERGENCE head (flood test species); for Plant response rating, Barnyardgrass: flood test species listed under POSTEMERGENCE, 0 to 100 scale
From the text: as §2

C=CCN1C(=O)COc2cc(F)c(-c3nn4c(c3Br)CCCC4)cc21 [Compound 41]
6: Plant response rating, Rice ([5]; POSTEMERGENCE, Rate 50 g/ha)
2: Plant response rating, Corn ([2]; Rate 200 g/ha, PREEMERGENCE) | Plant response rating, Cotton ([3]; Rate 200 g/ha, PREEMERGENCE) | Plant response rating, Wild oat ([7]; PREEMERGENCE, Rate 50 g/ha)
40: Plant response rating (0 to 100), Downy Brome ([11]; Rate 31 g/ha) | Plant response rating, Sorghum ([14]; 62 g/ha)
80: Plant response rating, Bedstraw ([8]; 62 g/ha)
60: Plant response rating Downy Brome ([11]; 125 g/ha)
20: Plant response rating, Crabgrass ([10]; 62 g/ha) | Plant response rating (0 to 100), Giant foxtail ([12]; Rate 16 g/ha) | Plant response rating (0 to 100), Sorghum ([14]; Rate 16 g/ha)
3: Plant response rating, Cheatgrass ([1]; POSTEMERGENCE, Rate 50 g/ha) | Plant response rating, Cheatgrass ([1]; PREEMERGENCE, Rate 50 g/ha) | Plant response rating, Wheat ([6]; Rate 200 g/ha, PREEMERGENCE) | Plant response rating, Wild oat ([7]; POSTEMERGENCE, Rate 50 g/ha)
5: Plant response rating, Cheatgrass ([1]; POSTEMERGENCE, Rate 200 g/ha) | Plant response rating, Cheatgrass ([1]; Rate 200 g/ha, PREEMERGENCE) | Plant response rating, Corn ([2]; POSTEMERGENCE, Rate 200 g/ha) | Plant response rating, Wheat ([6]; POSTEMERGENCE, Rate 50 g/ha) | Plant response rating, Wheat ([6]; Rate 200 g/ha, POSTEMERGENCE)
90: Plant response rating, Bedstraw ([8]; 125 g/ha) | Plant response rating (0 to 100), Barnyardgrass ([18]; Rate 16 g/ha)
10: Plant response rating, Cotton ([3]; POSTEMERGENCE, Rate 50 g/ha) | Plant response rating, Cotton ([3]; POSTEMERGENCE, Rate 200 g/ha) | Plant response rating, Lambsquarter ([4]; POSTEMERGENCE, Rate 50 g/ha) | Plant response rating, Lambsquarter ([4]; PREEMERGENCE, Rate 50 g/ha) | Plant response rating, Lambsquarter ([4]; Rate 200 g/ha, POSTEMERGENCE) | Plant response rating, Lambsquarter ([4]; Rate 200 g/ha, PREEMERGENCE) | Plant response rating (0 to 100), Crabgrass ([10]; Rate 16 g/ha) | Plant response rating (0 to 100), Crabgrass ([10]; Rate 31 g/ha) | Plant response rating (0 to 100), Duck salad ([17]; Rate 31 g/ha)
0: Plant response rating, Corn ([2]; PREEMERGENCE, Rate 50 g/ha) | Plant response rating, Rice ([5]; PREEMERGENCE, Rate 50 g/ha) | Plant response rating, Rice ([5]; Rate 200 g/ha, PREEMERGENCE) | Plant response rating (0 to 100), Duck salad ([17]; Rate 16 g/ha)
4: Plant response rating, Cotton ([3]; PREEMERGENCE, Rate 50 g/ha) | Plant response rating, Wild oat ([7]; Rate 200 g/ha, POSTEMERGENCE)
50: Plant response rating Downy Brome ([11]; 62 g/ha) | Plant response rating, Giant foxtail ([12]; 125 g/ha) | Plant response rating, Sorghum ([14]; 125 g/ha)
100: Plant response rating, Cotton ([9]; 62 g/ha) | Plant response rating, Cotton ([9]; 125 g/ha) | Plant response rating (0 to 100), Cotton ([9]; Rate 16 g/ha) | Plant response rating (0 to 100), Cotton ([9]; Rate 31 g/ha) | Plant response rating Lambsquarters ([13]; 62 g/ha) | Plant response rating Lambsquarters ([13]; 125 g/ha) | Plant response rating (0 to 100), Lambsquarters ([13]; Rate 31 g/ha) | Plant response rating, Sugar beet ([15]; 62 g/ha) | Plant response rating, Sugar beet ([15]; 125 g/ha) | Plant response rating (0 to 100), Sugar beet ([15]; Rate 16 g/ha) | Plant response rating (0 to 100), Sugar beet ([15]; Rate 31 g/ha) | Plant response rating, Velvetleaf ([16]; 62 g/ha) | Plant response rating, Velvetleaf ([16]; 125 g/ha) | Plant response rating (0 to 100), Velvetleaf ([16]; Rate 16 g/ha) | Plant response rating (0 to 100), Velvetleaf ([16]; Rate 31 g/ha) | Plant response rating (0 to 100), Barnyardgrass ([18]; Rate 31 g/ha) | Plant response rating, Barnyardgrass ([18]; 62 g/ha) | Plant response rating, Barnyardgrass ([18]; 125 g/ha)
85: Plant response rating (0 to 100), Lambsquarters ([13]; Rate 16 g/ha)
30: Plant response rating, Crabgrass ([10]; 125 g/ha) | Plant response rating (0 to 100), Downy Brome ([11]; Rate 16 g/ha) | Plant response rating, Giant foxtail ([12]; 62 g/ha) | Plant response rating (0 to 100), Giant foxtail ([12]; Rate 31 g/ha) | Plant response rating (0 to 100), Sorghum ([14]; Rate 31 g/ha) | Plant response rating Duck salad ([17]; 62 g/ha) | Plant response rating Duck salad ([17]; 125 g/ha)
70: Plant response rating (0 to 100), Bedstraw ([8]; Rate 16 g/ha) | Plant response rating (0 to 100), Bedstraw ([8]; Rate 31 g/ha)
7: Plant response rating, Rice ([5]; Rate 200 g/ha, POSTEMERGENCE)
1: Plant response rating, Wheat ([6]; PREEMERGENCE, Rate 50 g/ha)
